The structures appear in SMILES notation. pIC50: −log10 of the molar value. Where “and” joins values, the source holds several entries; their conditions need not be identical. Equal values may be shown once. Calls of active or inactive are those of the source. The rule behind the calls is not given here.

For this assay, the system named is HeLa, chromatin condensation phenotype imaging. As to the kind of experiment: condensed chromatin phenotype in HeLa cells – imaging, IC50, dose response (AID 1117350).
With `CCCCCCCCCCCCCCCCNc1ccc(C(=O)O)cc1`, the IC50 (usually the concentration that gives 50% inhibition) is > 10 µM (inactive).

On to `CSc1ccc2c(c1)C(N1CCN(C)CC1)Cc1ccccc1S2` (stereo unspecified), for which the IC50 was > 10 µM (inactive).

Consider `OC[C@H]1O[C@@H](n2cnc3c(=S)nc[nH]c32)[C@H](O)[C@@H]1O`, for which the IC50 is > 10 µM (inactive).

Take `CCCCCCC[N+](CC)(CC)CCCCc1ccc(Cl)cc1`: the IC50 is > 10 µM (inactive).

`C=C(C)[C@H]1Cc2c(ccc3c2O[C@@H]2COc4cc(OC)c(OC)cc4[C@@H]2C3=O)O1`: the pIC50 (in general, the IC50 on a negative log10 scale, so that one unit is a factor of ten) is 6.65.

For the compound `CCN(CC)CCNC(=O)c1c(C)[nH]c(/C=C2\C(=O)Nc3ccc(F)cc32)c1C`, the negative logarithm of the IC50 (pIC50) is 5.42.

In the case of `CC[C@]1(O)C[C@@H]2CN(CCc3c([nH]c4ccccc34)[C@@](C(=O)OC)(c3cc4c(cc3OC)N(C)[C@H]3[C@@](O)(C(=O)OC)[C@H](OC(C)=O)[C@]5(CC)C=CCN6CC[C@]43[C@@H]65)C2)C1`, the pIC50 was 8.34 and 8.49.

As to `CC[C@@H]([C@H](C)O)n1ncn(-c2ccc(N3CCN(c4ccc(OC[C@@H]5CO[C@@](Cn6cncn6)(c6ccc(F)cc6F)C5)cc4)CC3)cc2)c1=O`, the IC50 was > 10 µM (inactive).

As to `CCC(=O)c1ccc(O)cc1`, the IC50 is > 10 µM (inactive).

As to `C[n+]1c2cc(N)ccc2cc2ccc(N)cc21` (tested in a mixture with another compound), the negative-log IC50 (pIC50) was 5.66.

Regarding `O=C1[C@H]2CCCC[C@H]2C(=O)N1CCCCN1CCN(c2nsc3ccccc23)CC1`, the IC50 is > 10 µM (inactive).

With `CCC(COC(=O)c1cc(OC)c(OC)c(OC)c1)(c1ccccc1)N(C)C` (stereo unspecified), the IC50 was > 10 µM (inactive).

In the case of `CCCCCCCCCCCCNCCNCCNCC(=O)O`, the IC50 is > 10 µM (inactive).

Take `Cc1ccc(CCn2c3c(c4cc(Cl)ccc42)CN(C)CC3)cn1`: the IC50 was > 10 µM (inactive).

Regarding `CC(C)OC(=O)OCOP(=O)(CO[C@H](C)Cn1cnc2c(N)ncnc21)OCOC(=O)OC(C)C`, the IC50 was > 10 µM (inactive).

With `O=C(O)CN(CCN(CC(=O)O)CC(=O)O)CCN(CC(=O)O)CC(=O)O`, the IC50 is > 10 µM (inactive).

As for `CCOc1ccc2nc3cc(N)ccc3c(N)c2c1`, the IC50 is > 10 µM (inactive).

`CCCOc1ccc2nc(NC(=O)OC)[nH]c2c1`: the pIC50 was 7.11.

Take `O=C1C2CC=CCC2C(=O)N1SC(Cl)(Cl)Cl` (stereo unspecified): the IC50 was 6.14 µM (inactive).

For `Cc1nc2ccc(CN(C)c3ccc(C(=O)N[C@@H](CCC(=O)O)C(=O)O)s3)cc2c(=O)[nH]1`, the IC50 was > 10 µM (inactive).

Turning to `CCCCCCCCCCCC(=O)[O][Sn]([CH2]CCC)([CH2]CCC)[O]C(=O)CCCCCCCCCCC`, the IC50 is > 10 µM (inactive).

With `O=C(O)CCc1nc2ccccc2[nH]1`, the IC50 was > 10 µM (inactive).

As for `CC(C)(C)C(=O)OCOP(=O)(COCCn1cnc2c(N)ncnc21)OCOC(=O)C(C)(C)C`, the IC50 was > 10 µM (inactive).

Consider `CCC(C)(C)C(=O)O[C@H]1C[C@@H](C)C=C2C=C[C@H](C)[C@H](CC[C@@H]3C[C@@H](O)CC(=O)O3)[C@H]21`, for which the IC50 was > 10 µM (inactive).

As to `CC(C)=CCOc1ccc(/C=C/C(=O)c2ccc(OCC=C(C)C)cc2OCC(=O)O)cc1`, the IC50 is > 10 µM (inactive).

As to `CCN(CC)CCOc1ccc(/C(=C(\Cl)c2ccccc2)c2ccccc2)cc1`, the IC50 is > 10 µM (inactive).

Take `CCN(CC)CCOc1ccc(C(O)(Cc2ccc(Cl)cc2)c2ccc(C)cc2)cc1` (stereo unspecified): the IC50 was > 10 µM (inactive).

For `CC(=O)Oc1ccccc1C(=O)Nc1ncc([N+](=O)[O-])s1`, the IC50 was > 10 µM (inactive).

In the case of `COc1ccc(Cc2nccc3cc(OC)c(OC)cc23)cc1OC`, the IC50 was > 10 µM (inactive).

On to `CCCCCCCCCCOCC(O)CN` (stereo unspecified), for which the IC50 was > 10 µM (inactive).

Consider `O=C(Nc1ccc(Br)cc1)c1cc(Br)cc(Br)c1O`, for which the IC50 is > 10 µM (inactive).

With `O=C(O)CCCc1ccc(N(CCCl)CCCl)cc1`, the IC50 was > 10 µM (inactive).

In the case of `O=c1[nH]c(=O)n([C@H]2C[C@H](O)[C@@H](CO)O2)cc1F`, the IC50 was > 10 µM (inactive).

As to `COc1c(C)c2c(c(O)c1C/C=C(\C)CCC(=O)OCCN1CCOCC1)C(=O)OC2`, the IC50 is > 10 µM (inactive).

In the case of `NC(N)=NN=C(/C=C/c1ccc([N+](=O)[O-])o1)/C=C/c1ccc([N+](=O)[O-])o1`, the IC50 is > 10 µM (inactive).

Take `COc1cc(-c2ccc(=O)[nH]n2)ccc1OC(F)F`: the IC50 was > 10 µM (inactive).

As to `O=C(CCl)c1ccc(Cl)cc1Cl`, the pIC50 is 6.27.

Consider `O=C1c2c(O)ccc(O)c2C(=O)c2c(NCCNCCO)ccc(NCCNCCO)c21`, for which the IC50 was > 10 µM (inactive).

`O=c1[nH]c(=O)n([C@H]2C[C@H](O)[C@@H](CO)O2)cc1Br`: the IC50 was > 10 µM (inactive).

For `COC(=O)Nc1nc2ccc(C(=O)c3ccccc3)cc2[nH]1`, the negative-log IC50 (pIC50) was 7.19.

For `Cc1ccc2nc(N)[nH]c(=O)c2c1Sc1ccncc1`, the IC50 was > 10 µM (inactive).

As for `CCCCCCCCCCCCCCCC[N+](C)(C)Cc1ccccc1`, the IC50 was > 10 µM (inactive).

Consider `COc1cccc2c1C(=O)c1c(O)c3c(c(O)c1C2=O)C[C@@](O)(C(C)=O)C[C@@H]3O[C@H]1C[C@H](N)[C@H](O)[C@H](C)O1`, for which the pIC50 is 6.43.

For the compound `CC(C)(C)C1CCC(CC2=C(O)c3ccccc3C(=O)C2=O)CC1` (stereo unspecified), the IC50 was > 10 µM (inactive).

As for `COc1cccc2c1C(=O)c1c(O)c3c(c(O)c1C2=O)C[C@@](O)(C(=O)CO)CC3OC1CC(N2CCOC(OC)C2)C(O)C(C)O1` (stereo partly specified), the pIC50 was 7.93.

As to `COc1cc([C@@H]2c3cc4c(cc3[C@H](O)[C@H]3COC(=O)[C@H]23)OCO4)cc(OC)c1OC`, the pIC50 is 7.95.

Take `COCCOC(=O)C1=C(C)NC(C)=C(C(=O)OC/C=C/c2ccccc2)C1c1cccc([N+](=O)[O-])c1` (stereo unspecified): the IC50 is > 10 µM (inactive).

Regarding `Oc1c(I)cc(I)c2cccnc12`, the IC50 is > 10 µM (inactive).

For the compound `O=C(O)c1ccc(-n2nc(-c3ccccc3O)nc2-c2ccccc2O)cc1`, the IC50 is > 10 µM (inactive).

As for `Oc1c(Cl)cc(Cl)cc1Sc1cc(Cl)cc(Cl)c1O`, the IC50 is > 10 µM (inactive).

Regarding `C[C@@H]1C[C@H]2[C@@H]3CCC4=CC(=O)C=C[C@]4(C)[C@@]3(Cl)[C@@H](O)C[C@]2(C)[C@@]1(OC(=O)c1ccco1)C(=O)CCl`, the IC50 was > 10 µM (inactive).

As to `O=c1[nH]cc(F)c(=O)[nH]1`, the IC50 was > 10 µM (inactive).

Consider `Cc1cc(O)c2ccccc2c1O`, for which the IC50 is > 10 µM (inactive).

As for `COC(=O)c1nc(Cl)c(Cl)nc1N`, the pIC50 was 6.06.

For `NCCNc1ccc(NCCN)c2c1C(=O)c1ccncc1C2=O`, the IC50 is > 10 µM (inactive).

On to `CCN(CC)CCNc1ccc(CO)c2sc3ccccc3c(=O)c12`, for which the IC50 was > 10 µM (inactive).

On to `Cc1ccc([N+](=O)[O-])[c]2c1[O][Hg]2`, for which the pIC50 was 5.91.

For the compound `Clc1ccccc1C(c1ccccc1)(c1ccccc1)n1ccnc1`, the IC50 is > 10 µM (inactive).

Turning to `CCCSc1ccc2nc(NC(=O)OC)[nH]c2c1`, the pIC50 is 7.21.

As for `CCCCCCNC(=O)n1cc(F)c(=O)[nH]c1=O`, the IC50 was > 10 µM (inactive).

Turning to `CCN(CC)CCCC(C)Nc1c2ccc(Cl)cc2nc2ccc(OC)cc12` (stereo unspecified), the IC50 is 8.58 µM (inactive).
